Test results reported in article PMC7324617, “Selection and identification of a novel bone-targeting peptide for biomedical imaging of bone” (Scientific Reports, 2020).
“Also recorded” adds a separate entry of the source. Where no end group is shown, it is not given here.

Experiments:
Saos-2 cells = assay: Cytotoxicity assay (WST-1) in Saos-2 cells; assay type: cell-based; settings: 1 nM to 100 μM, 24 h, 48 h and 72 h, WST-1, triplicates
Procedure: The biocompatibility of HA-pep3 is important for assessing the feasibility of its in vivo application. Therefore, we performed HA-pep3 cytotoxicity assessment in osteoblastic Saos-2 osteogenic cells for 24 h, 48 h and 72 h (Fig. 6a and Figure S3). The cell viability was measured using various concentrations of HA-pep3 ranging from 1 nM to 100 μM. […] Next, we analyzed HA-pep3 in vivo application feasibility. We used Cy5.5 dye with near-infrared wavelength for in vivo imaging, to minimize tissue adsorption. After Cy5.5 dye labeling, scrambled peptide and HA-pep3 were injected into the tail vein of nude mice. […] The fluorescence intensity in bone was about 3.32 folds higher for Cy5.5-HA-pep3 than for a scrambled sequence (Fig. 6d).
Saos-2 osteosarcoma osteogenic primary cell line was purchased from the Korean cell line bank. Cells were cultured in […] medium with L-glutamine (300 mg/L), 25 mM HEPES, and 25 mM NaHCO3 supplemented with 10% heat-inactivated fetal bovine serum (FBS), 100 U/mL penicillin, and 100 μg/mL streptomycin. The cell lines were cultured at 37 °C and up to 5% CO2 in humidified atmosphere. All reagents and cell culture media were purchased from the WELGENE Company, South Korea. HA-pep3 cytotoxicity was examined using WST-1 assay. […] Finally, the absorbance was measured at 450 nm using a microplate spectrophotometer (Tecan Infinite 200). […]

[1] = Blood analysis for in vivo clearance; set-up: species or system mice; settings: blood samples 10 μL at 1, 3, 6 and 12 h after intravenous injection of Cy5.5-HA pep3; fluorescence (IVIS)
Description: We used X-ray function of in vivo imaging machine, IVIS Lumina XRMS and performed X-ray imaging of the mice with Cy5.5-HA pep3. With x-ray images, we could observe the high fluorescence intensity at spine (Figure S5a). In additions, we compared its biodistribution in vivo to our Cy5.5-HA pep3 and E7 positive peptide after intravenous injection. […] In addition, we performed blood analysis to determine clearance of our peptide in vivo (Figure S6).
All animal studies were approved by the Institutional Review Board of the Catholic University of Korea (approval No. CUMC-2019-0003-01). BALB/c nude mice (4 weeks old, OrientBio, Seongnam city, Korea) and wild type C3H/HeN mice were used for in vivo imaging. Cy5.5-scramble peptide or Cy5.5-HAp peptide (5 mg/kg of peptide in 100 µL physiological saline, n = 3) were administered to the mice by a tail vein injection. […] All images were analyzed with Living Image 4.5 software (PerkinElmer Inc., Massachusetts, USA). […] The fluorescence intensity of […] in samples was measured by IVIS Lumina XRMS.
Figure S6. […] (a) Time-dependent fluorescence images of blood sample obtained from mice tail at 1, 2, 3, 6 and 12h after intravenous injection of Cy5.5-HA pep3. (b) Average fluorescence intensity graph of the blood samples in (a).

In the case of KNFQSRSH [HA-pep3], the “cytotoxicity (cell viability)” value (Saos-2 cells) is reported as “no cytotoxicity; also recorded: did not show any cytotoxicity up to 100 μM” and the clearance from blood [1] is reported as “disappeared in blood after 12 h”.
